Values joined by “and” are separate entries in the source; they are usually repeats but may differ in a detail not shown here. Equal values may be shown once.
Assays:
[1] = target: STK24 (MST3) (Homo sapiens (Human), UniProt Q9Y6E0); experiment: Z-lyte biochemical IC50 assay (Invitrogen); details: ATP concentration matched the Km
Method: (§1) STK4 (MST1), STK3 (MST2); STK24 (MST3) and MST4 Assays
(§2) Biochemical IC50s were measured at Invitrogen using Z-lyte technology. Briefly, for STK4, the 2×STK4 (MST1)/Ser/Thr 07 mixture was prepared in 50 mM HEPES pH 7.5, 0.01% BRIJ35, 10 mM MgCl2, 1 mM EGTA. The final 10 μL Kinase Reaction consisted of 6.25-160 ng STK4 (MST1) and 2 μM Ser/Thr 07 in 50 mM HEPES pH 7.5, 0.01% BRIJ-35, 10 mM MgCl2, 1 mM EGTA. After the 1 hour Kinase Reaction incubation, 5 μL of a 1:100000 dilution of Development Reagent A was added. Compounds were screened in a 10 point titration with 3-fold serial dilutions starting at a concentration of 10 μM. The biochemical IC50s against other STK family members were measured similarly. The ATP concentration used matched the Km for each kinase.

[2] = target: STK4 (MST1) (Homo sapiens (Human), UniProt Q13043); experiment: Z-lyte biochemical IC50 assay (Invitrogen); details: ATP concentration matched the Km
Method: as §1, §2

[3] = target: STK3 (MST2) (Homo sapiens (Human), UniProt Q13188); experiment: Z-lyte biochemical IC50 assay (Invitrogen); details: ATP concentration matched the Km
Method: as §1, §2

[4] = test system: YAP1; experiment: Western blotting; assay type: cell-based; details: H929 and MM.1S cells, 3 μM and 10 μM, 72 hours
Text: (§3) MM.1S, KMS20 and H929 cells are counted, diluted and plated. Cells are then […] with DMSO or different concentration of a compound of the present application for 6 hrs, 24 hrs or 48 hrs. MM cells are then collected and centrifuged at RT and the pellets are re-suspended in lysis buffer. Cell lysates are subjected to sodium dodecyl sulfate-polyacrylamide gel electrophoresis SDS-PAGE, transferred to nitrocellulose membranes, and immunoblotted with different antibodies.
(§4) MM.1S, KMS20 and H929 cells were counted, diluted and plated in six-well plates to a final concentration of 500,000 cells/well. Cells were then […] with DMSO or different concentration of a compound of the present application for 6 hrs, 24 hrs or 48 hrs. MM cells were then collected and centrifuged for 5 min, 1300 rpm at RT. The pellets were re-suspended in lysis buffer Laemli 1× (Laemli 5×: SDS 10%, DTT 500 mM, Tris-HCl pH6.8 0.4M, BromoFenol Blue, Glycerol 50%). Cell lysates were subjected to sodium dodecyl sulfate-polyacrylamide gel electrophoresis SDS-PAGE, transferred to nitrocellulose membranes, and immunoblotted with different antibodies: YAP1 (#4912), p-YAP1 (S127) (#13008), LATS1 (#9153), p-LATS1 (Thr1079) (#8654), MOB1 (#3863), p-MOB1 (Thr12) (#8843), p-MST1/p-MST2 (Thr183/Thr180) (#3681), p21 (#2947), PARP (#9532), ERK, STAT, and GAPDH (#5174) from Cell Signaling, Beverly, Mass., United States; STK4 (ab57836) (from Abcam, Cambridge, Mass., United States); PUMA (sc-28226), BAX (sc-20067), from Santa Cruz, Dallas, Tex., United States; β-actin from Sigma-Aldrich (St. Louis, Mo., United States). All antibodies were diluted 1:500, except for β-actin antibody (1:50,000 dilution). In FIG. 8, H929 cells were treated with Compound I-9 or DMSO at 1 μM concentration for 24 hours. Lysates were then obtained and immunoblot was performed using antibodies against PARP, YAP1, PUMA, BAX. p21, and GAPDH.
In FIG. 10A, H929 and MM.1S cells were treated with Compound I-1 or DMSO at 1 μM and 10 μM concentrations for 16 hours. Lysates were then obtained and immunoblot was performed using antibodies against YAP1 and GAPDH.
In FIG. 12, H929 and MM. 1S cells were treated with Compound I-9, Compound I-12, or DMSO at 3 μM and 10 μM concentrations for 72 hours. Lysates were then obtained and immunoblot was performed using antibodies against YAP1 and Actin as loading control.
FIG. 13 show a Western blot of H929 and MM.1S cells treated with Compound I-13, Compound I-28, Compound I-9, KIN001-305, BMS536924, or DMSO at 1 μM concentration for 16 hours. Lysates were then obtained and immunoblot was performed using antibodies against YAP1, Actin, and pMOB1.

[5] = test system: p-MOB1; experiment: Western blotting; assay type: cell-based; details: MM.1S cells, 1 μM and 10 μM, 6 hours
Text: as §3, §4
In FIGS. 26A-26J, MM.1S cells were treated with Compound I-6, Compound I-31, Compound I-30, Compound I-22, Compound I-27, Compound I-1, Compound I-23, Compound I-13, Compound I-28, Compound I-9, or DMSO at 1 μM and 10 μM concentrations for 6 hours. Lysates were then obtained and immunoblot was performed using antibodies against MOB1 and p-MOB1. As shown from FIGS. 26A-26J, Compound I-22, Compound I-27, Compound I-1, Compound I-23, Compound I-13, Compound I-28, and Compound I-9 reduced PMOB1 levels at different concentrations.

[6] = target: STK4 (Homo sapiens (Human), UniProt Q13043); experiment: KiNativ Platform experiment, MM.1S cell lysates, biotinylated ATP, Western blot; assay type: binding; details: 10 μM, 20 minutes, then biotinylated ATP 10 minutes
Method: FIG. 32A and FIG. 32B show the results of a KiNativ™ Platform experiment obtained after incubating MM.1S cell lysates with 10 μM of the indicated compounds for 20 minutes, followed by incubation with biotinylated ATP for 10 minutes. FIG. 32A is a graph showing the ratio of MEK2 to STK4 derived from the Western blotting band signals in FIG. 32B, in MM.1S cell lysates treated with 10 μM of Compound I-9, I-13, or I-27 or KIN001-305 followed by incubation with biotinylated ATP. FIG. 32B is a Western blot showing the levels of STK4 and MEK2 in MM.1S cells treated with 10 μM of Compound I-9, I-13, or I-27 or KIN001-305 followed by incubation with biotinylated ATP.

STK3 (MST2), sequence (Q13188 whole entry): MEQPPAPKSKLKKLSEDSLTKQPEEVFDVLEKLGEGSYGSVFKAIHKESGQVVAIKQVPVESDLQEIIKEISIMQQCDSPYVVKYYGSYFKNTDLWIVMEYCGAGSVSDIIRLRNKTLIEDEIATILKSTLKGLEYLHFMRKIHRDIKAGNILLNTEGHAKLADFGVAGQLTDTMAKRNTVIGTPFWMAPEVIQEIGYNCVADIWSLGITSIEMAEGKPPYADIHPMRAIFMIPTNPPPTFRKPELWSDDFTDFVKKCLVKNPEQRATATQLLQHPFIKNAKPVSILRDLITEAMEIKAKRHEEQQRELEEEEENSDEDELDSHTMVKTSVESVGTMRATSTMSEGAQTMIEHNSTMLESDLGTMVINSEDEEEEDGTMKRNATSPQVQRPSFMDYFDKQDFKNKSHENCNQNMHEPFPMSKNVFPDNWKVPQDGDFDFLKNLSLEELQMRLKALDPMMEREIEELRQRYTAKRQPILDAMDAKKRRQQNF
STK24 (MST3), sequence (Q9Y6E0 whole entry): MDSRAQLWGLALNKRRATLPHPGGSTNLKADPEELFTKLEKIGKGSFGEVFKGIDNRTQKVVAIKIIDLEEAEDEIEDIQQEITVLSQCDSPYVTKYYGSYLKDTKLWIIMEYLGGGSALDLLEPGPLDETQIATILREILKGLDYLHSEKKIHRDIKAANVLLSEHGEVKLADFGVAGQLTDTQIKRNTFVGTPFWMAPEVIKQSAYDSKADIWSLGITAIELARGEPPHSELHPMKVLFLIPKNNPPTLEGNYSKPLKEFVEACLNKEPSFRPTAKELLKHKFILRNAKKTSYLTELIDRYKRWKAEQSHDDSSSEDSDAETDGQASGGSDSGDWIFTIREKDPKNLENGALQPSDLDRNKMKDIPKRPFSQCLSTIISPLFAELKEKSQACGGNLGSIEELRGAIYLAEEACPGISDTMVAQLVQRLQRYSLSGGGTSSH
STK4 (MST1), sequence (Q13043 whole entry): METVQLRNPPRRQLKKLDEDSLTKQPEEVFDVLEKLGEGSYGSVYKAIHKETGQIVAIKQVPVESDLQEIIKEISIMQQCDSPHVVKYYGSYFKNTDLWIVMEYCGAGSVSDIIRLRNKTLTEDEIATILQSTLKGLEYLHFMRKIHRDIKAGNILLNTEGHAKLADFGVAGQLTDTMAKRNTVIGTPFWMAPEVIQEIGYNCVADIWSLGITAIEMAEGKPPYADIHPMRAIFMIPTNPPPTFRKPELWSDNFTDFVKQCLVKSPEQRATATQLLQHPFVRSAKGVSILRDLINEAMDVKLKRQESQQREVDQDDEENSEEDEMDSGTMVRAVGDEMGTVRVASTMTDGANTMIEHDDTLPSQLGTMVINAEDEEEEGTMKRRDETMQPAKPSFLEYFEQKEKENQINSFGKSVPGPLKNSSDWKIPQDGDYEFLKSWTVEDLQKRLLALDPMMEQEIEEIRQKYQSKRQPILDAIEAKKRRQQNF
STK4, sequence (Q13043 whole entry): as above

| SMILES | IC50 [1] | IC50 [2] | IC50 [3] | YAP1 levels [4] | PMOB1 levels [5] | affinity for STK4, as of ATP binding [6] |
| --- | --- | --- | --- | --- | --- | --- |
| Nc1ncc(-c2cccc([N+](=O)[O-])c2)cc1-c1ccc2c(c1)CCNC2=O [Compound I-2, 6-(2-amino-5-(3-nitrophenyl)pyridin-3-yl)-3,4-dihydroisoquinolin-1(2H)-one] | > 900 nM | < 40 nM | – | – | – | – |
| Nc1ncc(-c2ccccc2F)cc1-c1ccc2c(c1)CCNC2=O [Compound I-3, 6-(2-amino-5-(2-fluorophenyl)pyridin-3-yl)-3,4-dihydroisoquinolin-1(2H)-one] | > 900 nM | 40 to 200 nM | – | – | – | – |
| Nc1ncc(-c2cc([N+](=O)[O-])ccc2Cl)cc1-c1ccc2c(c1)CCNC2=O [Compound I-4, 6-(2-amino-5-(2-chloro-5-nitrophenyl)pyridin-3-yl)-3,4-dihydroisoquinolin-1(2H)-one] | > 900 nM | > 900 nM | – | – | – | – |
| Nc1ncc(-c2cnccc2F)cc1-c1ccc2c(c1)CCNC2=O [Compound I-5, 6-(6-amino-4′-fluoro-[3,3′-bipyridin]-5-yl)-3,4-dihydroisoquinolin-1(2H)-one] | > 900 nM | 200 to 900 nM | – | – | – | – |
| CCNC(=O)c1ccc(F)c(-c2cnc(N)c(-c3ccc4c(c3)CCNC4=O)c2)c1 [Compound I-6, 3-(6-amino-5-(1-oxo-1,2,3,4-tetrahydroisoquinolin-6-yl)pyridin-3-yl)-N-ethyl-4-fluorobenzamide] | > 900 nM | > 900 nM | – | – | – | – |
| Nc1ncc(-c2cccc(S(=O)(=O)NC3CC3)c2)cc1-c1ccc2c(c1)CCNC2=O [Compound I-12, 3-(6-amino-5-(1-oxo-1,2,3,4-tetrahydroisoquinolin-6-yl)pyridin-3-yl)-N-cyclopropylbenzenesulfonamide] | 200 to 900 nM | 40 to 200 nM | 40 to 200 nM | upregulation | – | – |
| Nc1ncc(-c2cc([N+](=O)[O-])c(Cl)cc2F)cc1-c1ccc2c(c1)CCNC2=O [Compound I-22, 6-(2-amino-5-(4-chloro-2-fluoro-5-nitrophenyl)pyridin-3-yl)-3,4-dihydroisoquinolin-1(2H)-one] | – | 40 to 200 nM | 40 to 200 nM | – | reduced | – |
| Nc1ncc(-c2cc3c(cc2F)OCC(=O)N3)cc1-c1ccc2c(c1)CCNC2=O [Compound I-23, 6-(6-amino-5-(1-oxo-1,2,3,4-tetrahydroisoquinolin-6-yl)pyridin-3-yl)-7-fluoro-2H-benzo[b][1,4]oxazin-3(4H)-one] | – | < 40 nM | 40 to 200 nM | – | reduced | – |
| Nc1ncc(-c2cc([N+](=O)[O-])c(NCc3ccccc3)cc2F)cc1-c1ccc2c(c1)CCNC2=O [Compound I-27, 6-(2-amino-5-(4-(benzylamino)-2-fluoro-5-nitrophenyl)pyridin-3-yl)-3,4-dihydroisoquinolin-1(2H)-one] | – | 40 to 200 nM | – | – | reduced | highest affinity |
| COc1cc(S(=O)(=O)N(C)C2CC2)ccc1-c1cnc(N)c(-c2ccc3c(c2)CCNC3=O)c1 [Compound I-72, 4-(6-amino-5-(1-oxo-1,2,3,4-tetrahydroisoquinolin-6-yl)pyridin-3-yl)-N-cyclopropyl-3-methoxy-N-methylbenzenesulfonamide] | 40 to 200 nM | < 40 nM | < 40 nM | – | – | – |
| CN(C1CC1)S(=O)(=O)c1ccc(-c2cnc(N)c(-c3ccc4c(c3)CNC4=O)c2)c(F)c1 [Compound I-74, 4-(6-amino-5-(1-oxoisoindolin-5-yl)pyridin-3-yl)-N-cyclopropyl-3-fluoro-N-methylbenzenesulfonamide] | > 900 nM | < 40 nM and 40 to 200 nM | < 40 nM | – | – | – |
| N#Cc1cccc(-c2cnc(N)c(-c3ccc4c(c3)CCNC4=O)c2)c1 [Compound I-75, 3-(6-amino-5-(1-oxo-1,2,3,4-tetrahydroisoquinolin-6-yl)pyridin-3-yl)benzonitrile] | 200 to 900 nM | 40 to 200 nM | 40 to 200 nM | – | – | – |
| Nc1ncc(-c2scnc2Cl)cc1-c1ccc2c(c1)CCNC2=O [Compound I-76, 6-(2-amino-5-(4-chlorothiazol-5-yl)pyridin-3-yl)-3,4-dihydroisoquinolin-1(2H)-one] | > 900 nM | < 40 nM and 40 to 200 nM | 40 to 200 nM | – | – | – |
| Nc1ncc(-c2scnc2Cl)cc1-c1ccc2c(c1)CCNC2=O [Compound I-77, 6-(2-amino-5-(4-chlorothiazol-5-yl)pyridin-3-yl)-3,4-dihydroisoquinolin-1(2H)-one] | – | 40 to 200 nM | – | – | – | – |
| CN(C1CC1)S(=O)(=O)c1ccc(-c2cnc(N)c(-c3ccc4c(c3)CCNC4=O)c2)cc1 [KIN001-305, reference compound] | – | < 40 nM | – | – | – | highest affinity |
